Test results published in article PMC9329436, “Optimization of the 4-anilinoquin(az)oline scaffold as epidermal growth factor receptor (EGFR) inhibitors for chordoma utilizing a toxicology profiling assay platform” (Scientific Reports, 2022).

Tested on: U-CH1 chordoma cell line
Test: Cell viability assay (alamarBlue, 72 h), U-CH1
Type: cell-based, human
Conditions: n = 4, 72 h
How it was run: (§1)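 Cells grown in 4:1 IMDM:RPMI with 10% FBS on gel-coated flasks, dosed in quadruplicate 24 h after seeding in 384-well plates.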

| Structure (SMILES) | IC50 [µM] | U-CH1 IC50 |
| --- | --- | --- |
| C#Cc1cc(Nc2ncnc3cc(I)ccc23)ccc1F [Compound 40] | > 100 | no activity |
| C#Cc1cccc(Nc2ncnc3cc4c(cc23)OCCO4)c1 [Compound 21] | 8.8 | – |
| C#Cc1cc(Nc2ncnc3ccc(I)cc23)ccc1Cl [Compound 37] | 31 | – |
| C#Cc1cccc(Nc2ncnc3cc(OC)c(OC)cc23)c1F [Compound 43] | 2 | – |

Tested on: U-CH2 chordoma cell line
Test: Cell viability assay (alamarBlue, 72 h), U-CH2
Type: cell-based, human
Conditions: n = 4, 72 h
How it was run: as §1

| Structure (SMILES) | IC50 [µM] | U-CH2 IC50 |
| --- | --- | --- |
| C#Cc1cc(Nc2ncnc3cc(I)ccc23)ccc1F [Compound 40] | > 100 | no activity |
| C#Cc1cccc(Nc2ncnc3cc4c(cc23)OCCO4)c1 [Compound 21] | > 100 | – |
| C#Cc1cc(Nc2ncnc3ccc(I)cc23)ccc1Cl [Compound 37] | 5 | – |
| C#Cc1cccc(Nc2ncnc3cc(OC)c(OC)cc23)c1F [Compound 43] | 7.1 | – |

Tested on: CH22 patient-derived chordoma cell line
Test: Cell viability assay (alamarBlue, 72 h), CH22
Type: cell-based, human
Conditions: n = 4, 72 h
Experimental: (§2) Chordoma cell lines were cultured as described previously[10],[12],[33],[34]. Briefly, U-CH1 and U-CH2 cell lines were cultured in 4:1 IMDM:RPMI medium supplemented with 10% fetal bovine serum (FBS) and 1% penicillin/streptomycin in gel-coated flasks. […] CH22, UM-Chor1, U-CH12, and U-CH7 cell lines were cultured in RPMI medium supplemented with 10% FBS and 1% penicillin/streptomycin. The cell lines all undergo regular mycoplasma screening.
(§3) Cells were seeded in 384 well plates and were treated with test compound in quadruplicate 24 h after plating. Cell viability was assessed at 72 h using alamarBlue (ThermoFisher, USA). […] IC50 values were determined by four-parameter nonlinear regression analyses using GraphPad Prism™ version 8 software (San Diego, CA).

| Structure (SMILES) | IC50 [µM] |
| --- | --- |
| C#Cc1cc(Nc2ncnc3cc(I)ccc23)ccc1F [Compound 40] | 50 |
| C#Cc1cccc(Nc2ncnc3cc4c(cc23)OCCO4)c1 [Compound 21] | > 100 |
| C#Cc1cc(Nc2ncnc3ccc(I)cc23)ccc1Cl [Compound 37] | > 100 |
| C#Cc1cccc(Nc2ncnc3cc(OC)c(OC)cc23)c1F [Compound 43] | 5.8 |

Tested on: UM-Chor1 patient-derived chordoma cell line
Test: Cell viability assay (alamarBlue, 72 h), UM-Chor1
Type: cell-based, human
Conditions: n = 4, 72 h
Experimental: as §2, §3

| Structure (SMILES) | IC50 [µM] |
| --- | --- |
| C#Cc1cc(Nc2ncnc3cc(I)ccc23)ccc1F [Compound 40] | > 100 |
| C#Cc1cccc(Nc2ncnc3cc4c(cc23)OCCO4)c1 [Compound 21] | 64 |
| C#Cc1cc(Nc2ncnc3ccc(I)cc23)ccc1Cl [Compound 37] | > 100 |
| C#Cc1cccc(Nc2ncnc3cc(OC)c(OC)cc23)c1F [Compound 43] | > 100 |

Tested on: U-CH12 patient-derived chordoma cell line
Test: Cell viability assay (alamarBlue, 72 h), U-CH12
Type: cell-based, human
Conditions: n = 4, 72 h
Experimental: as §2, §3

| Structure (SMILES) | IC50 [µM] |
| --- | --- |
| C#Cc1cc(Nc2ncnc3cc(I)ccc23)ccc1F [Compound 40] | > 100 |
| C#Cc1cccc(Nc2ncnc3cc4c(cc23)OCCO4)c1 [Compound 21] | > 100 |
| C#Cc1cc(Nc2ncnc3ccc(I)cc23)ccc1Cl [Compound 37] | > 100 |
| C#Cc1cccc(Nc2ncnc3cc(OC)c(OC)cc23)c1F [Compound 43] | > 100 |

Tested on: U-CH7 patient-derived chordoma cell line
Test: Cell viability assay (alamarBlue, 72 h), U-CH7
Type: cell-based, human
Conditions: n = 4, 72 h
Experimental: as §2, §3

| Structure (SMILES) | IC50 [µM] |
| --- | --- |
| C#Cc1cc(Nc2ncnc3cc(I)ccc23)ccc1F [Compound 40] | > 100 |
| C#Cc1cccc(Nc2ncnc3cc4c(cc23)OCCO4)c1 [Compound 21] | > 100 |
| C#Cc1cc(Nc2ncnc3ccc(I)cc23)ccc1Cl [Compound 37] | > 100 |
| C#Cc1cccc(Nc2ncnc3cc(OC)c(OC)cc23)c1F [Compound 43] | 57 |

Tested on: WS1 human fibroblast cell line
Test: Cell viability assay, WS1 toxicity control
Type: cell-based
Conditions: n = 4, nonspecific toxicity control
Experimental: as §3

| Structure (SMILES) | IC50 [µM] |
| --- | --- |
| C#Cc1cc(Nc2ncnc3cc(I)ccc23)ccc1F [Compound 40] | > 100 |
| C#Cc1cccc(Nc2ncnc3cc4c(cc23)OCCO4)c1 [Compound 21] | > 100 |
| C#Cc1cc(Nc2ncnc3ccc(I)cc23)ccc1Cl [Compound 37] | > 100 |
| C#Cc1cccc(Nc2ncnc3cc(OC)c(OC)cc23)c1F [Compound 43] | 12 |

Tested on: HL60 cells
Test: AsedaSciences SYSTEMETRIC Cell Health Screen (flow cytometry toxicity profiling)
Conditions: HL60, 4 h, 5 nM–100 µM, probability 0–1, n = 2
How it was run: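 HL60 cells (100,000 per well) exposed 4 h at 37 °C, 5% CO2 to 10-step 3× dilutions (5 nM–100 µM), in duplicate. Cells then stained with mitochondrial and cell-stress reporter dyes and read by ungated flow cytometry over twelve parameters. Cell Health Index and eight endpoint scores come from an ML classifier trained on 300 high/low-risk compounds.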

| Structure (SMILES) | CC: Cell Cycle score | CM: Cell morphology score | CMI: Cell membrane integrity score | GSH: Glutathione score | MMP: Mitochondrial membrane depolarization score | NMI1: Nuclear membrane integrity 1 score | NMI2: Nuclear membrane integrity 2 score | ROS: Reactive superoxide species score |
| --- | --- | --- | --- | --- | --- | --- | --- | --- |
| C#Cc1cc(Nc2ncnc3cc(I)ccc23)ccc1F [Compound 40] | 0.28 | 0.049 | 0.26 | 0.033 | 0.59 | 0.46 | 0.33 | 0.34 |
| CN(C)C/C=C/C(=O)Nc1cc2c(Nc3ccc(F)c(Cl)c3)ncnc2cc1O[C@H]1CCOC1 [Afatinib, reference compound] | 0.93 | 1.00 | 1.00 | 1.00 | 1.00 | 1.00 | 0.99 | 1.00 |
| C#Cc1cccc(Nc2ncnc3cc4c(cc23)OCCO4)c1 [Compound 21] | 0.77 | 0.053 | 0.91 | 0.39 | 0.91 | 0.73 | 0.83 | 0.85 |
| C#Cc1cc(Nc2ncnc3ccc(I)cc23)ccc1Cl [Compound 37] | 0.080 | 0.26 | 0.54 | 0.18 | 0.24 | 0.41 | 0.33 | 0.91 |
| C#Cc1cccc(Nc2ncnc3cc(OC)c(OC)cc23)c1F [Compound 43] | 0.059 | 0.0093 | 0.56 | 0.38 | 0.28 | 0.10 | 0.59 | 0.024 |

Same assay, conditions: HL60, 4 h, 5 nM–100 µM, probability (0–1) of high-risk class, n = 2

| Structure (SMILES) | CHI: Cell Health Index |
| --- | --- |
| C#Cc1cc(Nc2ncnc3cc(I)ccc23)ccc1F [Compound 40] | 0.38 |
| CN(C)C/C=C/C(=O)Nc1cc2c(Nc3ccc(F)c(Cl)c3)ncnc2cc1O[C@H]1CCOC1 [Afatinib, reference compound] | 0.92 |
| C#Cc1cccc(Nc2ncnc3cc4c(cc23)OCCO4)c1 [Compound 21] | 0.56 |
| C#Cc1cc(Nc2ncnc3ccc(I)cc23)ccc1Cl [Compound 37] | 0.33 |
| C#Cc1cccc(Nc2ncnc3cc(OC)c(OC)cc23)c1F [Compound 43] | 0.33 |

Tested on: U-CH1 chordoma cell line
Test: not given
Conditions: previously reported, Figure 1; cited from earlier work

| Structure (SMILES) | IC50 [µM] |
| --- | --- |
| CN(C)C/C=C/C(=O)Nc1cc2c(Nc3ccc(F)c(Cl)c3)ncnc2cc1O[C@H]1CCOC1 [Afatinib, reference compound] | 0.1 |

Tested on: U-CH2 chordoma cell line
Test: not given
Conditions: previously reported, Figure 1; cited from earlier work

| Structure (SMILES) | IC50 [µM] |
| --- | --- |
| CN(C)C/C=C/C(=O)Nc1cc2c(Nc3ccc(F)c(Cl)c3)ncnc2cc1O[C@H]1CCOC1 [Afatinib, reference compound] | 6.4 |

Target: EGFR (Homo sapiens, UniProt P00533)
Sequence (P00533 25-1210): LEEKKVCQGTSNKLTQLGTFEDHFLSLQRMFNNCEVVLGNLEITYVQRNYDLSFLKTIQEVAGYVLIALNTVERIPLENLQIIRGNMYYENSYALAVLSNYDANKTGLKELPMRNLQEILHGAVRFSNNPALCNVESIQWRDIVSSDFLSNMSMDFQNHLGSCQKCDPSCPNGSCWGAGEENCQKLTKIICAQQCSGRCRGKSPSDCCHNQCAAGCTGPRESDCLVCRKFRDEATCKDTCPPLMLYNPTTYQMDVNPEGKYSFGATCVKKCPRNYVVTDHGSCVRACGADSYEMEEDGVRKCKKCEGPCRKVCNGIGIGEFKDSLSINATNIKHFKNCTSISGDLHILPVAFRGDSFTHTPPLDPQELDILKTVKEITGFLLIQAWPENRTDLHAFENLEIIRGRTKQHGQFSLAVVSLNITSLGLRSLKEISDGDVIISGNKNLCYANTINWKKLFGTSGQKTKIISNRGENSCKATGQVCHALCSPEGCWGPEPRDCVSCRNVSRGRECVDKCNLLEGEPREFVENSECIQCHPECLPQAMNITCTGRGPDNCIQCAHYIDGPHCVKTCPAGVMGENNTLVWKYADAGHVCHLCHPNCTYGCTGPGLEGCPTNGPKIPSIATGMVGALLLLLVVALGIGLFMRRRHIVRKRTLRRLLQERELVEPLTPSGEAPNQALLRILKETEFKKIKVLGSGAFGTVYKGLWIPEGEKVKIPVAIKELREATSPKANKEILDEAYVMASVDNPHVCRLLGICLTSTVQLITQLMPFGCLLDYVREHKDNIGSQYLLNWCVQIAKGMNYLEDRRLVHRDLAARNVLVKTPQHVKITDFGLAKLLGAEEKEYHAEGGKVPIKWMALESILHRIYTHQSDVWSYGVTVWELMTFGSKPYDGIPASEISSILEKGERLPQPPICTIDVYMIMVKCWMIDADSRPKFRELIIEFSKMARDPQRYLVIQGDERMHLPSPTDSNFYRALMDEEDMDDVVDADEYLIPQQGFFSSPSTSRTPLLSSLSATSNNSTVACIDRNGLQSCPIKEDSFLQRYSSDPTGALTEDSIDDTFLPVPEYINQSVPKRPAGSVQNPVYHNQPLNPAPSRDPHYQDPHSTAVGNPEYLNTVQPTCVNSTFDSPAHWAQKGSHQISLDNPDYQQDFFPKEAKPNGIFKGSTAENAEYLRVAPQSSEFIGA
Test: ProQinase in-cell EGFR assay (EGFR phosphorylation in A431 cells)
Type: cell-based
Design: This cell line endogenously expresses a high level of EGFR; endogenous in cells; host or cells: A431
Conditions: ProQinase in-cell EGFR assay, A431 cells, n = 1
Description: In addition, we ran an EGFR in-cell target engagement assay, measuring in-cell EGFR phosphorylation, using the human epidermoid carcinoma cell line A431. This cell line endogenously expresses a high level of EGFR, and stimulation of these cells with human epidermal growth factor (EGF) results in receptor tyrosine autophosphorylation.

| Structure (SMILES) | IC50 [µM] |
| --- | --- |
| C#Cc1cc(Nc2ncnc3cc(I)ccc23)ccc1F [Compound 40] | 3.6 |
| C#Cc1cccc(Nc2ncnc3cc4c(cc23)OCCO4)c1 [Compound 21] | 1.9 |
| C#Cc1cc(Nc2ncnc3ccc(I)cc23)ccc1Cl [Compound 37] | 2 |
| C#Cc1cccc(Nc2ncnc3cc(OC)c(OC)cc23)c1F [Compound 43] | 0.06 |
